Tests used:
Assay type in all cases: in vivo
[1] = tested on: rats; test: Tolerability of IA in rats; conditions: 1 mL of 30,000 ppm IA
Excerpt: (§1) In other words, IA is not harmful to the health of mammals even at high doses.

[2] = tested on: intrinsic pathway of coagulation system; test: Activated partial thromboplastin time (aPTT) of plasma from IA-treated mice
Method: The 5- to 6-week old male C57BL/6JNar1 mice having body weights around 20 g were purchased from National Laboratory Animal Center, Taipei, Taiwan. Coagulation system in blood is composed of intrinsic and extrinsic pathways. The intrinsic pathway is assayed by activated thromboplastin time (aPTT) and the extrinsic pathway is assayed by prothrombin time (PT). Following intraperitoneal injection of various dose of IA, plasma was obtained at different periods of time and was assayed for aPTT and PT. aPTT and PT were assayed in a Stago ST4 coagulation analyzer (ST art 4, Diagnostica Stago, France). By carbon dioxide anesthesia of mice, blood was obtained by cardiac puncture using 3.2% sodium citrate mixing with blood at a ratio of 1:9. The blood was centrifuged at 2000g/rpm for 10 minutes to get the mouse plasma, which was assayed immediately. aPTT was assayed in 4-fold dilution of aPTT r reagent using kit-provided buffer solution as diluent. In aPTT assay, 0.1 mL of plasma was kept warm for 1 min at 37° C. in a barrette of 4 cuvettes in Stago ST4 coagulation analyzer, then 0.1 mL of 4 fold-diluted aPTT reagent and one steel ball were added and waited for 180 seconds. Finally, 0.1 mL of 25 mM CaCl2 solution was added for aPTT detection. To investigate the anticoagulation effect in the intrinsic pathway of coagulation system in the IA-treated mice, the aPTT was measured at different treatment times. Mouse (n=6) was intraperitoneally injected with 1 mL of 1000 ppm ([…]) IA, blood was drawn 1 hr, 2 hr, 3 hr, and 24 hr after IA injection. Ten mice were injected with vehicle (n=10) and were served as controls. Then, the aPTT of each group was measured. FIG. 2A is a diagram of Table 1-1. To investigate the anticoagulation effect in the intrinsic pathway of coagulation system the IA-treated mice, the aPTT was also measured under different doses of IA. Various doses of IA (1 ppm, 10 ppm, 100 ppm, 1,000 ppm) in 1 mL, were intraperitoneally injected into different groups of mice (n=6), respectively. Plasma was separated 3 hr later. Ten mice were injected with vehicle and were served as controls. The aPTT of each group was measured. FIG. 2B is a diagram of Table 1-2.

[3] = tested on: extrinsic pathway of coagulation system; test: Prothrombin time (PT) of plasma from IA-treated mice
Method: The 5- to 6-week old male C57BL/6JNar1 mice having body weights around 20 g were purchased from National Laboratory Animal Center, Taipei, Taiwan.
Coagulation system in blood is composed of intrinsic and extrinsic pathways. The intrinsic pathway is assayed by activated thromboplastin time (aPTT) and the extrinsic pathway is assayed by prothrombin time (PT). Following intraperitoneal injection of various dose of IA, plasma was obtained at different periods of time and was assayed for aPTT and PT. aPTT and PT were assayed in a Stago ST4 coagulation analyzer (ST art 4, Diagnostica Stago, France).
By carbon dioxide anesthesia of mice, blood was obtained by cardiac puncture using 3.2% sodium citrate mixing with blood at a ratio of 1:9. The blood was centrifuged at 2000g/rpm for 10 minutes to get the mouse plasma, which was assayed immediately.
PT was assayed in 4-fold dilution of PT reagent, composed of four parts including one part of PT reagent, one part of 25 mM CaCl solution, and two parts of sterile water. In PT assay, 0.1 mL of plasma was put into each of 4 barrette cuvette, each of which had one steel ball, and was kept at 37° C. for 1 min in Stago ST4 coagulation analyzer. Then, 0.2 mL of the diluted PT reagent was added for PT detection.
Moreover, to investigate the anticoagulation effect in the extrinsic pathway of coagulation system in the IA-treated mice, the PT was measured at different treatment times. Different groups of mice (n=6) were respectively intraperitoneally injected with 1 mL of 1000 ppm ([…]) IA, blood was drawn 1 hr, 2 hr, 3 hr, and 24 hr after IA injection. Ten mice were injected with vehicle (n=10) and were served as controls. Then, the PT of each group was measured. FIG. 3A is a diagram of Table 2-1.
To investigate the anticoagulation effect in the extrinsic pathway of coagulation system in the IA-treated mice, the PT was also measured under different doses of IA. Various doses of IA (1 ppm, 10 ppm, 100 ppm, 1,000 ppm) in 1 mL, were intraperitoneally injected into different groups of mice (n=6), respectively. Plasma was separated 3 hr later. Ten mice were injected with vehicle and were served as controls. The PT of each group was measured. FIG. 3B is a diagram of Table 2-2.

[4] = tested on: mice; test: Tolerability of intraperitoneal IA in mice
Excerpt: as §1

[5] = 1 mL i.p., 3 hr after injection
[6] = 1 mL of 1000 ppm (0.05 mL/kg) IA i.p., treatment time 1 hr
[7] = 1 mL of 1000 ppm (0.05 mL/kg) IA i.p., treatment time 2 hr
[8] = 1 mL of 1000 ppm (0.05 mL/kg) IA i.p., treatment time 3 hr
[9] = 1 mL of 1000 ppm (0.05 mL/kg) IA i.p., treatment time 24 hr
[10] = injected dose 1 ppm in 1 mL i.p., 3 hr after injection
[11] = injected dose 10 ppm in 1 mL i.p., 3 hr after injection
[12] = injected dose 100 ppm in 1 mL i.p., 3 hr after injection
[13] = injected dose 1000 ppm in 1 mL i.p., 3 hr after injection

## CC(C)CCN [IA, 3-methyl-1-butanamine]
[1]
  Physiological state after IA: normal physiological state can also be maintained
[2]; [5]
  Lowest dose with anticoagulation effect in the intrinsic pathway (aPTT prolonged, statistical meaning): 1 ppm
[2]; [6]
  Mean of aPTT: 30.8 s
[2]; [7]
  Mean of aPTT: 32.0 s
[2]; [8]
  Mean of aPTT: 33.7 s
[2]; [9]
  Mean of aPTT: 34.8 s
[2]; 1 mL of 1000 ppm IA i.p.
  Treatment time after which aPTT prolongation has statistical meaning: 1 h
[2]; [10]
  Mean of aPTT: 33.0 s
[2]; [11]
  Mean of aPTT: 33.0 s
[2]; [12]
  Mean of aPTT: 33.4 s
[2]; [13]
  Mean of aPTT: 33.7 s
[3]; [5]
  Dose at which PT was obviously prolonged (statistical meaning): 1000 ppm
[3]; [6]
  Mean of PT: 11.6 s
[3]; [7]
  Mean of PT: 12.2 s
[3]; [8]
  Mean of PT: 12.6 s
[3]; [9]
  Mean of PT: 13.2 s
[3]; 1 mL of 1000 ppm IA i.p.
  Treatment time after which PT prolongation has statistical meaning: 2 h
[3]; [10]
  Mean of PT: 11.2 s
[3]; [11]
  Mean of PT: 11.4 s
[3]; [12]
  Mean of PT: 11.5 s
[3]; [13]
  Mean of PT: 12.6 s
[4]; BALB/C mice (20 g), 1 mL of 20,000 ppm (0.1 mL/kg) i.p.
  Tolerance of intraperitoneal injection: could tolerate
[4]; mice, 1 mL of 1,000 ppm (0.05 mL/kg) IA
  Physiological state after IA: normal physiological state can be maintained

Reference: patent US20170216225A1, “METHOD FOR ANTICOAGULATION” (priority 2016, published 2017)
